Laboratory results published in patent publication US9274101B2 (BIOLOG, Inc., priority 2001, dated 2016).
Like-named read-outs stand apart in the source and are kept apart here. Where a SMILES comes first, the peptide text is derived from it. Bridges are numbered along the chain shown (N, C = ends). [ ]: non-standard residue; d: D form. The star is where a group is joined. Ileψ(thiazoline)Cys = CC[C@H](C)[C@H](N)C1=N[C@H](C(=O)*)CS1; dOrn = NCCC[C@@H](N)C(=O)O

Assays:
E. coli MG1655 [1] = type: cell-based, Escherichia coli
[2] = tested on: Salmonella typhimurium auxotrophs hisF645 and pyrCΔ73; type: cell-based
ten strains of E. coli = type: cell-based, Escherichia coli; note: key: +: indicates that the organism tested was capable of utilizing the carbon source listed; −: indicates that the organism tested was not capable of utilizing the carbon source listed; indicates weak positive reactions
HepG2 cells = HepG2 cells cultured on CYTODEX 3 microcarriers, energy sources; type: cell-based, human; settings: Homo sapiens, HepG2, 68 h, read-out: Responses of HepG2 Cells Cultured on Microcarriers After 68 hours in Culture and a 4 hour Color Development Period
Procedure: In this Example, methods for testing adherent cells cultured in suspension, for their ability to use multiple carbon sources are described. HepG2 cells were cultured as described in Example 30.
HepG2 cells were harvested by trypsinization for 3 minutes in 0.25% trypsin-1 mM EDTA and resuspended in an equal volume of culture medium. A viable cell count was obtained by trypan blue exclusion and the appropriate volume of the cell suspension to have 2.7×10^6 cells/0.1 gm CYTODEX 3 (Sigma C3275) microcarrier beads was determined. Microcarrier beads had been previously prepared by 1) rehydration in calcium-magnesium free (CMF) DPBS for 3 hours, 2) autoclaving for 15 minutes, and 3) washing twice in MEM without serum. The cell suspension was added to the beads in a 50 mL tube, and the volume adjusted to 5 mL. Cells were allowed to attach for 1 hour in an atmosphere of 5% CO2, 90-100% humidity, and 37° C., with resuspension every 15 minutes. The microcarriers were transferred to a 100×15 mm Petri dish in a total volume of 20 mL. Cultures were maintained as stationary cultures until used for assay.
The thixotropic suspending agent, methylcellulose (1500 cps, Sigma M0555), was included in the medium to keep the microcarriers suspended so that they could be accurately pipetted. The methylcellulose was prepared by autoclaving in 20 mL tissue culture water for 30 minutes, then mixing by shaking for 1 hour. The initial concentration of methylcellulose was […]. The methylcellulose was then diluted 1:1 in 2× DME with or without glucose, then supplemented with 10% HI FBS; this yields a methylcellulose concentration of 1.36%. Beads were transferred to a 50 mL tube, allowed to settle and resuspended in DPBS. The washed beads were then resuspended in DME with 10% HI FBS and penicillin-streptomycin but without glucose, L-glutamine, sodium pyruvate, or phenol red. An equal volume of 1.36% methylcellulose was added and mixed by pipetting.
For the assay, 70 μL of DME with 10% HI FBS and penicillin-streptomycin but without glucose, L-glutamine, sodium pyruvate, or phenol red were added to each well, followed by 30 μL of the appropriate dilution of each test energy source. Stocks of 133 mM of each test chemical were prepared in tissue culture grade water, sterile filtered, and dilutions were prepared in a master plate so that, upon dilution into a regular 96-well MICROPLATE a total well volume of 200 μL, the final concentrations would be 0.033 to 20 mM. Negative control wells received 30 μL of tissue culture grade water. One hundred μL of beads were pipetted into each well. For each plate containing energy sources and cells, a second, control plate containing only energy sources was prepared. Plates were incubated at 5% CO2, 90-100% humidity, and 37° C. for 68 hours prior to addition of the MTS/MPMS colorometric reagent (10 μL/well). The color formed in each well 4-8 hours after addition of the colorimetric reagent, was measured with a plate reader at 490 nm with a reference wavelength of 650 nm. OD values from the control plate were subtracted from the OD values obtained with cells prior to normalizing the data to % negative control (cells without added energy source).

E. coli MG1655 [3] = type: cell-based, Escherichia coli; remark: listed apart in the source
E. coli (MG1655) = test: Sensitivity in ES1, ES2, ES3 MICROPLATE panels in the presence of vancomycin or sulfamethoxazole (synergy/antagonism); type: cell-based, Escherichia coli
E. coli MG1655 [4] = test: PM kinetic profiles of antimicrobials, S-O-R scoring and dendrogram; type: cell-based, Escherichia coli; settings: 1× level of each antimicrobial, 7 PMs, 48 hours
[5] = in the presence of 235 μg/ml sulfamethoxazole
[6] = in the presence of 10 μg/ml vancomycin

## O=c1ccn([C@@H]2O[C@H](CO)[C@@H](O)[C@H]2O)c(=O)[nH]1 [Uridine]
E. coli MG1655 [1]
  suitability as nitrogen source (growth, purple color): not suitable
[2]
  growth stimulation (well color): turned purple
Ten strains of E. coli
  carbon source utilization: +
HepG2 cells; Conc. 0.03 mM
  activity at 30 µM: 102%
HepG2 cells; Conc. 0.10 mM
  activity at 100 µM: 109%
HepG2 cells; Conc. 0.33 mM
  activity at 330 µM: 99%
HepG2 cells; Conc. 1.00 mM
  activity at 1000 µM: 109%
HepG2 cells; Conc. 3.3 mM
  activity at 3300 µM: 106%
HepG2 cells; Conc. 10 mM
  activity at 10000 µM: 94.8%
HepG2 cells; Conc. 15 mM
  activity at 15000 µM: 74.1%
HepG2 cells; Conc. 20 mM
  activity at 20000 µM: 31.9%

## Nc1ncnc2c1ncn2[C@@H]1O[C@H](CO)[C@@H](OP(=O)(O)O)[C@H]1O [adenosine 3-monophosphate]
[2]
  growth stimulation (well color): turned weakly purple
E. coli MG1655 [3]
  suitability as phosphorus source (growth, purple color): positive

## Nc1ncnc2c1ncn2[C@@H]1O[C@H](COP(=O)(O)O)[C@@H](O)[C@H]1O [adenosine 5′-monophosphate]
[2]
  growth stimulation (well color): turned weakly purple
E. coli MG1655 [3]
  suitability as phosphorus source (growth, purple color): not suitable

## Nc1ncnc2c1ncn2[C@@H]1O[C@H](CO)[C@@H](O)[C@H]1OP(=O)(O)O [adenosine-2′-monophosphate]
[2]
  growth stimulation (well color): turned weakly purple
E. coli MG1655 [3]
  suitability as phosphorus source (growth, purple color): positive

## O=[N+]([O-])c1ncc[nH]1 [azomycin]
E. coli (MG1655)
  change of sensitivity to the panel compound: increased sensitivity

## CC[C@H](C)[C@H](N)C1=N[C@H](C(=O)N[C@@H](CC(C)C)C(=O)N[C@H](CCC(=O)O)C(=O)N[C@H](C(=O)N[C@H]2CCCCNC(=O)[C@H](CC(N)=O)NC(=O)[C@@H](CC(=O)O)NC(=O)[C@H](Cc3cnc[nH]3)NC(=O)[C@@H](Cc3ccccc3)NC(=O)[C@H]([C@@H](C)CC)NC(=O)[C@@H](CCCN)NC2=O)[C@@H](C)CC)CS1 [bacitracin] ({Ileψ(thiazoline)Cys}-L[dE]IK[dOrn]I[dF]H[dD]N; lactam 4-C)
E. coli MG1655 [4]
  position in dendrogram of PM response profiles (FIG. 9): cluster

## N[C@@H](C(=O)N[C@@H]1C(=O)N2C(C(=O)O)=C(Cl)CS[C@H]12)c1ccccc1 [cefaclor]
E. coli (MG1655); [5]
  change of sensitivity to the panel compound: increased sensitivity

## Cc1nnc(SCC2=C(C(=O)O)N3C(=O)[C@@H](NC(=O)Cn4cnnn4)[C@H]3SC2)s1 [cefazolin]
E. coli (MG1655); [6]
  change of sensitivity to the panel compound: increased sensitivity
E. coli (MG1655); [5]
  change of sensitivity to the panel compound: increased sensitivity

## CO[C@@]1(NC(=O)Cc2cccs2)C(=O)N2C(C(=O)O)=C(COC(N)=O)CS[C@@H]21 [cefoxitin]
E. coli (MG1655); [6]
  change of sensitivity to the panel compound: increased sensitivity

## NC(=O)c1cc[n+](CC2=C(C(=O)O)N3C(=O)[C@@H](NC(=O)[C@@H](c4ccccc4)S(=O)(=O)[O-])[C@H]3SC2)cc1 [cefsulodin]
E. coli (MG1655); [5]
  change of sensitivity to the panel compound: increased sensitivity

## O=C(Cc1cccs1)N[C@@H]1C(=O)N2C(C(=O)[O-])=C(C[n+]3ccccc3)CS[C@H]12 [cephaloridine]
E. coli (MG1655); [5]
  change of sensitivity to the panel compound: increased sensitivity

## C/C=C/C/C=C/CCC(=O)[C@H]1O[C@H]1C(N)=O [cerulenin]
E. coli MG1655 [4]
  position in dendrogram of PM response profiles (FIG. 9): more closely resembled the multiple target antimicrobials

## [Cl][Cr]([Cl])[Cl] [chromium chloride]
E. coli (MG1655)
  change of sensitivity to the panel compound: increased sensitivity

## [Cl][Co][Cl] [cobalt chloride]
E. coli (MG1655)
  change of sensitivity to the panel compound: increased sensitivity

## Nc1ccn([C@@H]2O[C@H](CO)[C@@H](O)[C@H]2OP(=O)(O)O)c(=O)n1 [cytidine 2′-monophosphate]
[2]
  growth stimulation (well color): turned purple
E. coli MG1655 [3]
  suitability as phosphorus source (growth, purple color): not suitable

## Nc1ccn([C@@H]2O[C@H](CO)[C@@H](OP(=O)(O)O)[C@H]2O)c(=O)n1 [cytidine 3′-monophosphate]
[2]
  growth stimulation (well color): turned purple
E. coli MG1655 [3]
  suitability as phosphorus source (growth, purple color): positive

## Nc1ccn([C@@H]2O[C@H](COP(=O)(O)O)[C@@H](O)[C@H]2O)c(=O)n1 [cytidine 5′-monophosphate]
[2]
  growth stimulation (well color): turned purple
E. coli MG1655 [3]
  suitability as phosphorus source (growth, purple color): positive

## CC(=O)O[C@H]1C[C@@]2(C)[C@@H](C[C@@H](O)[C@H]3[C@@]4(C)CC[C@@H](O)[C@@H](C)[C@@H]4CC[C@@]32C)/C1=C(\CCC=C(C)C)C(=O)O [fusidic acid]
E. coli (MG1655); [6]
  change of sensitivity to the panel compound: increased sensitivity

## Nc1nc2c(ncn2[C@@H]2O[C@H](CO)[C@@H](O)[C@H]2OP(=O)(O)O)c(=O)[nH]1 [guanosine 2′-monophosphate]
[2]
  growth stimulation (well color): turned weakly purple
E. coli MG1655 [3]
  suitability as phosphorus source (growth, purple color): positive

## Nc1nc2c(ncn2[C@@H]2O[C@H](COP(=O)(O)O)[C@@H](O)[C@H]2O)c(=O)[nH]1 [guanosine 5′-monophosphate]
[2]
  growth stimulation (well color): turned weakly purple
E. coli MG1655 [3]
  suitability as phosphorus source (growth, purple color): positive

## [Cl][Ni][Cl] [nickel chloride]
E. coli (MG1655)
  change of sensitivity to the panel compound: increased sensitivity

## CO[C@@H]1[C@@H](OC(N)=O)[C@@H](O)[C@H](Oc2ccc3c(O)c(NC(=O)c4ccc(O)c(CC=C(C)C)c4)c(=O)oc3c2C)OC1(C)C [novobiocin]
E. coli (MG1655)
  change of sensitivity to the panel compound: increased resistance
E. coli (MG1655); [6]
  change of sensitivity to the panel compound: increased sensitivity

## CCn1cc(C(=O)O)c(=O)c2cc3c(cc21)OCO3 [oxolinic acid]
E. coli MG1655 [4]
  position in dendrogram of PM response profiles (FIG. 9): clustered

## C[C@@H]1O[C@@H]1P(=O)(O)O [phosphomycin]
E. coli MG1655 [4]
  position in dendrogram of PM response profiles (FIG. 9): cluster

## COc1cc(Cc2cnc(N)nc2N)cc(OC)c1OC [trimethoprim]
E. coli (MG1655); [6]
  change of sensitivity to the panel compound: increased sensitivity
E. coli (MG1655); [5]
  change of sensitivity to the panel compound: increased sensitivity

## O=c1ccn([C@@H]2O[C@H](CO)[C@@H](OP(=O)(O)O)[C@H]2O)c(=O)[nH]1 [uridine 3′-monophosphate]
[2]
  growth stimulation (well color): turned purple
E. coli MG1655 [3]
  suitability as phosphorus source (growth, purple color): positive

## O=c1ccn([C@@H]2O[C@H](COP(=O)(O)O)[C@@H](O)[C@H]2O)c(=O)[nH]1 [uridine 5′-monophosphate]
[2]
  growth stimulation (well color): turned purple
E. coli MG1655 [3]
  suitability as phosphorus source (growth, purple color): positive
